Assay results published in PMC5187899, “Discovery of Anti-Hypertensive Oligopeptides from Adlay Based on In Silico Proteolysis and Virtual Screening” (International Journal of Molecular Sciences, 2016).
No end group written: not given here.

Target: T1, ACE from rabbit lungs (Oryctolagus cuniculus, UniProt P12822)
T1 construct: ACE from rabbit lungs and HHL was supplied by Sigma-Aldrich; purchased Sigma-Aldrich (St. Louis, MO, USA); host or cells: rabbit lung tissue
T1 sequence (P12822 34-1310): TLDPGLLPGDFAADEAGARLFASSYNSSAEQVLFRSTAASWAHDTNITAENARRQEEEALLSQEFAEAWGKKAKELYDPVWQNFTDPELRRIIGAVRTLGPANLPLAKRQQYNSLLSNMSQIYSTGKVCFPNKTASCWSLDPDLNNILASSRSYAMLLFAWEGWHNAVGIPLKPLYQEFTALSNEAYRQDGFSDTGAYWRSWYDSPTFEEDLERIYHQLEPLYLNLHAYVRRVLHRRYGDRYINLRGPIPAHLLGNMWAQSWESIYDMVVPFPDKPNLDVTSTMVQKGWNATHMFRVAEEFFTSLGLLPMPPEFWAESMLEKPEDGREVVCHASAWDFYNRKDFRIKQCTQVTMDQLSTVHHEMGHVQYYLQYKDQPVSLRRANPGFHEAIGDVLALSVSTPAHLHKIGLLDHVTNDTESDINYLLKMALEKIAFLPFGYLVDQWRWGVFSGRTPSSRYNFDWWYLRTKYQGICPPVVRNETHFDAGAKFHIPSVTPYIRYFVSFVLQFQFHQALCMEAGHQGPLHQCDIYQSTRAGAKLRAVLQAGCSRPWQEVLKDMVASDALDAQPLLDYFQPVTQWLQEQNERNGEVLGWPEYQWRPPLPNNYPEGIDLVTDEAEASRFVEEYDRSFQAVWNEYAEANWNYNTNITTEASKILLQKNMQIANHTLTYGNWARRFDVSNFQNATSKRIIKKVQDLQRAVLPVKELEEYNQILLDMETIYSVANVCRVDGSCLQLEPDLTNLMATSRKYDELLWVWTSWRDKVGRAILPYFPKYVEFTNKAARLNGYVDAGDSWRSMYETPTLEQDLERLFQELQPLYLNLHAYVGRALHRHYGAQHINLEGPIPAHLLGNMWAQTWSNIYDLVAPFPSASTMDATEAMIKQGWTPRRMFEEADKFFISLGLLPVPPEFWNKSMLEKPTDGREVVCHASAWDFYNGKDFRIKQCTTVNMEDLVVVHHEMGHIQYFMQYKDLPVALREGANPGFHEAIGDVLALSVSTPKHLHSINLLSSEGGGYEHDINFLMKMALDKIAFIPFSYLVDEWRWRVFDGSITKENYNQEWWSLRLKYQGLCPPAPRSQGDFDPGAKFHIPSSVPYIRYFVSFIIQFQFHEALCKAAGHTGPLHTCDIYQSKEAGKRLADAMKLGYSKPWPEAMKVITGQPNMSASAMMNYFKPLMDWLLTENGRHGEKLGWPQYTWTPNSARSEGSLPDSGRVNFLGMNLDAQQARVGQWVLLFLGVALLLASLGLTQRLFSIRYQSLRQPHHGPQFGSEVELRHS
Test: ACE inhibitory activity assay by RP-HPLC (HHL substrate, hippuric acid detection)
Type: biochemical
Conditions: for ACE inhibitory activity (in words): chromatograms at 0.048 mg/mL
Source text: The potential oligopeptides obtained by docking were chemically synthesized by the Beijing Scilight Biotechnology Ltd., Co. (Beijing, China). The purity levels of the synthesized oligopeptides were all greater than 98% by HPLC analysis. ACE from rabbit lungs and HHL was supplied by Sigma-Aldrich (St. Louis, MO, USA). Acetonitrile of HPLC grade was purchased from Fisher Scientific (Pittsburgh, PA, USA). Lisinopril was supplied by Beijing HWRK Chem Co., Ltd. (Beijing, China) with more than 98% purity. All other used chemicals were of analytical grade.
The assay of in vitro ACE inhibitory activity was performed by RP-HPLC method by Yuan. Initially, the mixture was incubated at 37 °C for 10 min, including 10 μL of samples and 20 μL ACE (2 mU). After adding 20 μL of 2 mM HHL, the mixture continued to be incubated for 60 min until acetonitrile was added to terminate reaction. HA from the hydrolysis of the substrate HHL was detected by RP-HPLC on a C18 column (250 × 4.6 mm, 5 μm, Tianhe) at 228 nm. The column was eluted at a flow rate of 1 mL/min using 25% (v/v) acetonitrile in water with 0.05% trifluoroacetic acid. Lisinopril and borate buffer solution were used as positive and negative control, respectively. The formula (1) for computing ACE inhibitory rate is shown as follows. Wherein, Acontrol is the peak area of HA by negative control and Asample is the peak area of HA by the sample. The IC50 was calculated by the dosage and efficiency curve based on the 50% inhibition of ACE. (1) Inhibitory activity (%)=Acontrol−Asample/Acontrol×100%

Compound: NCCCC[C@H](N[C@@H](CCc1ccccc1)C(=O)O)C(=O)N1CCC[C@H]1C(=O)O [Lisinopril, lisinopril, reference compound]
- ACE inhibition ratio (lisinopril 2 × 10^−9 mol/L, RP-HPLC, 228 nm, 37 °C, 2 mM HHL, 60 min): 77.86% ± 0.15%

Compound: NCHEF [oligopeptide from in silico proteolysis of adlay prolamins, chemically synthesized]
- ACE inhibitory activity (in words) (RP-HPLC): could not obtain the desirable activities of ACE

Compound: NPATY [NPATY]
- IC50 (RP-HPLC on C18 column, 228 nm, 10 μL sample + 20 μL ACE (2 mU), 37 °C 10 min pre-incubation, 20 μL of 2 mM HHL, 60 min, from dosage and efficiency curve): 61.9 ± 2.77 µM

Compound: VSAIGF [oligopeptide from in silico proteolysis of adlay prolamins, chemically synthesized]
- ACE inhibitory activity (in words) (RP-HPLC): could not obtain the desirable activities of ACE
